ChEMBL document CHEMBL4602647, “Protective effects of 10,11-dihydro-5H-dibenzo[b,f]azepine hydroxamates on vascular cognitive impairment” (Eur J Med Chem, 2020)
Activity calls are given as the source filed them. The rule behind the calls is not given here.

What was measured:
SH-SY5Y [1] = experiment: Neuroprotective activity against OGD-induced hypoxic injury in human SH-SY5Y cells assessed as LDH release at 1 nM to 10 uM incubated under oxygen/glucose deprivation-induced hypoxic medium by LDH assay; assay type: functional, cell-based
[2] = target: T1, Protein deacetylase HDAC6 (Homo sapiens, UniProt Q9UBN7); experiment: Inhibition of recombinant human N-terminal GST-tagged HDAC6 (1 to 1215 residues) expressed in baculovirus infected insect cells using RHK-K(Ac)-AMC as substrate after 90 mins by fluorimetry analysis
T1 sequence (Q9UBN7 whole entry): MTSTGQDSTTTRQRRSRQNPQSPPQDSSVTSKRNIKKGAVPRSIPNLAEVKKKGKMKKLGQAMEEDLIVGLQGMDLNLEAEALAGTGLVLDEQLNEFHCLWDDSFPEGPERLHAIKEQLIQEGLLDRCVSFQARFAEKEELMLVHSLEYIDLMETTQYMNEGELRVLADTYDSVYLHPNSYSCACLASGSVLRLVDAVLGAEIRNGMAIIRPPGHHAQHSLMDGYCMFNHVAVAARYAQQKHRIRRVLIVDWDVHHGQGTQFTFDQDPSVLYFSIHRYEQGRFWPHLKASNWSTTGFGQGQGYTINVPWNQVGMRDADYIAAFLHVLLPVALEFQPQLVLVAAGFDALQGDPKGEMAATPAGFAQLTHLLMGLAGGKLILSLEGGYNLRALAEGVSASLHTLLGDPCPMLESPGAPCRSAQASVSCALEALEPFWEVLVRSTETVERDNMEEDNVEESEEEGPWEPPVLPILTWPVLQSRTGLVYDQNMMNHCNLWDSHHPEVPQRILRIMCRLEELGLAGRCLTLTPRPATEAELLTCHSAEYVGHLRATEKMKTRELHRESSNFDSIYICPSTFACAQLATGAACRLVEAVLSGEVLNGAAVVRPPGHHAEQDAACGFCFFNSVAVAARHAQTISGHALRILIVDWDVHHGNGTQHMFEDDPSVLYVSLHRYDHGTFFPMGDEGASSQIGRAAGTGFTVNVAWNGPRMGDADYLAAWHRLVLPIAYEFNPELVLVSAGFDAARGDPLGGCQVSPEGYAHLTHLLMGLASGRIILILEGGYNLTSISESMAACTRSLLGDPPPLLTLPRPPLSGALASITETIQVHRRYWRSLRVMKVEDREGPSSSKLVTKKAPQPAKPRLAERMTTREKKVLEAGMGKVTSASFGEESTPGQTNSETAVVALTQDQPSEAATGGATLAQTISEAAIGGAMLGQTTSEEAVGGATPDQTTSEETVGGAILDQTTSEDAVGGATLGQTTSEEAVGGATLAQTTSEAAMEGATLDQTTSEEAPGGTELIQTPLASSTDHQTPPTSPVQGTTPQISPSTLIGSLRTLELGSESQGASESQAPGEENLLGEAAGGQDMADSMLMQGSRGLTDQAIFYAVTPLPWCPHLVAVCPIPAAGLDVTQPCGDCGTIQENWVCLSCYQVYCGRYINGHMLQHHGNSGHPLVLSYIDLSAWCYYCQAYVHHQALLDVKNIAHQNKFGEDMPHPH

Histone deacetylase 8 = target: T2, Histone deacetylase 8 (Homo sapiens, UniProt Q9BY41); experiment: Inhibition of recombinant C-terminal His-tagged and N-terminal Streptavidin2-tagged human HDAC8 (1 to 377 residues) expressed in baculovirus infected insect cells using RHK-K(Ac)-AMC as substrate after 60 mins by fluorescence assay
T2 sequence (Q9BY41 whole entry): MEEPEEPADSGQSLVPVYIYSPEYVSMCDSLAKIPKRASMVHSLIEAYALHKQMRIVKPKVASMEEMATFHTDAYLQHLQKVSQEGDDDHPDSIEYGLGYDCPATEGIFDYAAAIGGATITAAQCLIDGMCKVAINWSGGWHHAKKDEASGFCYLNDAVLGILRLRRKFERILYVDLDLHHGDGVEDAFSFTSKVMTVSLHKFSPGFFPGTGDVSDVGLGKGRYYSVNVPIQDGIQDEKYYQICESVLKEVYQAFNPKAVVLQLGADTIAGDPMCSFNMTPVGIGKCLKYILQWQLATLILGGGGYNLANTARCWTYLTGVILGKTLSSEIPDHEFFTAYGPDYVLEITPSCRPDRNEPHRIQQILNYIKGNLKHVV

Histone deacetylase 2 = Histone deacetylase 2 (Homo sapiens, UniProt Q92769); experiment: Inhibition of recombinant human C-terminal GST-tagged HDAC2 (1 to 488 residues) expressed in baculovirus infected sf21 cells using RHK-K(Ac)-AMC as substrate after 60 mins by fluorimetry assay
Histone deacetylase 2, sequence (Q92769 whole entry, the tested form may be a part): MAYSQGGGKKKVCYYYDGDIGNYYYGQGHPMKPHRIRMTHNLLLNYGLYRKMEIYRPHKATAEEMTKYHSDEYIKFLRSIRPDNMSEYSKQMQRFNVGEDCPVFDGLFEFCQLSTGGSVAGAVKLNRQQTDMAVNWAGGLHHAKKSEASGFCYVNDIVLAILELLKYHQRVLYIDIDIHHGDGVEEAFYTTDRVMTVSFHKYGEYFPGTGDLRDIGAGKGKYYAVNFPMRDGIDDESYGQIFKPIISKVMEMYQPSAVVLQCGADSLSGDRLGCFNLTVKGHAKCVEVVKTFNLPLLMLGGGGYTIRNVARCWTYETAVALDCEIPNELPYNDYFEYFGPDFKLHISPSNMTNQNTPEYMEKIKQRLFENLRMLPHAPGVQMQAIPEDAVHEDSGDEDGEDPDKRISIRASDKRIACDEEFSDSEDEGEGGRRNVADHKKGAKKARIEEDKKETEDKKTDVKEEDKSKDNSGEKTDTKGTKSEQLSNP

Histone deacetylase 1 = Histone deacetylase 1 (Homo sapiens, UniProt Q13547); experiment: Inhibition of recombinant full length human C-terminal FLAG/His-tagged HDAC1 (1 to 482 residues) expressed in baculovirus infected Sf21 cells using RHK-K(Ac)-AMC as substrate measured after 60 mins by fluorimetric assay
Histone deacetylase 1, sequence (Q13547 whole entry, the tested form may be a part): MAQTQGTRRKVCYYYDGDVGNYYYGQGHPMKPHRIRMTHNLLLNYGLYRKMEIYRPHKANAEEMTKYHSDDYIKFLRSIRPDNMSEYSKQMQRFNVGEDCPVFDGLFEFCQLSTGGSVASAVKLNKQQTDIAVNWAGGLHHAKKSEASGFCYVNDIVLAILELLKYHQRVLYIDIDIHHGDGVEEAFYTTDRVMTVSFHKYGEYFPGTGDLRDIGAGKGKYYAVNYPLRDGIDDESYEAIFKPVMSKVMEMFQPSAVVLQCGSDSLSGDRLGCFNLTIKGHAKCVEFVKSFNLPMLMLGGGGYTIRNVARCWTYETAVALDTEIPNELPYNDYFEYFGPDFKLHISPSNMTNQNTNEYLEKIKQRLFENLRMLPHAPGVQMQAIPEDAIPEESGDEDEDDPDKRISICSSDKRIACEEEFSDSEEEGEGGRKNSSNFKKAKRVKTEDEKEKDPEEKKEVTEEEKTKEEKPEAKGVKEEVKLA

Mus musculus [3] = experiment: (§1) Anti-vascular cognitive impairment activity against bilateral common carotid artery occlusion-induced vascular dementia C57BL/6J mouse model assessed as improvement in short-term non-spatial working memory by measuring increase in novel object recognition at 25 mg/kg, ip administered post surgery measured after 1 month by novel object recognition test; assay type: functional, organism-based
Mus musculus [4] = experiment: as §1, with “3 months” for “1 month”; assay type: functional, organism-based
Mus musculus [5] = experiment: (§2) Anti-vascular cognitive impairment activity against bilateral common carotid artery occlusion-induced vascular dementia C57BL/6J mouse model assessed as reversal of hippocampal atrophy by measuring increase in hippocampal volume at 25 mg/kg, ip administered post surgery measured after 3 months by 7T-MRI analysis; assay type: functional, organism-based
Mus musculus [6] = experiment: (§3) Anti-vascular cognitive impairment activity against bilateral common carotid artery occlusion-induced vascular dementia C57BL/6J mouse model assessed as ratio of cerebral blood flow in left parietal area at 25 mg/kg, ip administered post surgery measured after 3 months(reference value: 0.792 +/- 0.029); assay type: functional
Mus musculus [7] = experiment: as §2, with “ratio of size of hippocampus to lateral ventricle” for “hippocampal volume”; assay type: functional, organism-based
Mus musculus [8] = experiment: as §3, with “right” for “left”, “months (reference” for “months(reference”, “0.761” for “0.792”, “0.037)” for “0.029)”; assay type: functional
Mus musculus [9] = experiment: Upregulation of acetylated H3K14 protein expression in hippocampus of bilateral common carotid artery occlusion-induced vascular dementia C57BL/6J mouse model at 25 mg/kg, ip measured after 3 months by Western blot analysis; assay type: functional, organism-based
SH-SY5Y [10] = experiment: Neuroprotective activity against OGD-induced hypoxic injury in human SH-SY5Y cells assessed as LDH release at 10 uM incubated under oxygen/glucose deprivation-induced hypoxic medium by LDH assay (reference value: 27.47 +/- 3.23 %); assay type: functional
SH-SY5Y [11] = experiment: Neuroprotective activity against OGD-induced hypoxic injury in human SH-SY5Y cells assessed as LDH release at 5 uM incubated under oxygen/glucose deprivation-induced hypoxic medium by LDH assay (reference value: 27.47 +/- 3.23 %); assay type: functional
SH-SY5Y [12] = experiment: Neuroprotective activity against OGD-induced hypoxic injury in human SH-SY5Y cells assessed as LDH release at 1 uM incubated under oxygen/glucose deprivation-induced hypoxic medium by LDH assay (reference value: 27.47 +/- 3.23 %); assay type: functional

| SMILES | Activity (SH-SY5Y [1]) | IC50 [2] | IC50 (Histone deacetylase 8) | IC50 (Histone deacetylase 2; sf21) | IC50 (Histone deacetylase 2; read-out: IC50) | IC50 (Histone deacetylase 1; read-out: IC50) | Activity (SH-SY5Y [10]) | Activity (SH-SY5Y [11]) | other results |
| --- | --- | --- | --- | --- | --- | --- | --- | --- | --- |
| CN(C)CCCN1c2ccccc2CCc2ccc(Cl)cc21 | inactive |  |  |  |  |  |  |  |  |
| O=C(CCC(=O)NCCCN1c2ccccc2CCc2ccc(Cl)cc21)NO | inactive | > 10000 nM | > 10000 nM | Not Active |  |  |  |  | IC50 (Histone deacetylase 1; sf21): Not Active |
| O=C(CCCCC(=O)NCCCN1c2ccccc2CCc2ccc(Cl)cc21)NO | inactive | 2070 nM | 3090 nM |  | 9620 nM | 6800 nM |  |  |  |
| O=C(CCCC(=O)NCCCN1c2ccccc2CCc2ccc(Cl)cc21)NO | inactive | 1440 nM | 1850 nM |  | 5960 nM | 5100 nM |  |  |  |
| O=C(CCCCCCC(=O)Nc1ccccc1)NO [VORINOSTAT] |  |  |  |  |  |  |  |  | Activity (Mus musculus [3]): Active; Activity (Mus musculus [4]): inactive; Activity (Mus musculus [5]): inactive; Ratio (Mus musculus [6]): 0.878; Activity (Mus musculus [7]): inactive; Ratio (Mus musculus [8]): 0.83; Activity (Mus musculus [9]): inactive |
| O=C(CCCCCCCCC(=O)NCCCN1c2ccccc2CCc2ccc(Cl)cc21)NO |  | 142 nM | 864 nM |  | 3030 nM | 5450 nM | 65.87% | 84.35% |  |
| O=C(CCCCCC(=O)NCCCN1c2ccccc2CCc2ccc(Cl)cc21)NO |  | 61.6 nM | 345 nM |  | 3960 nM | 2140 nM | 92.47% | 86.54% |  |
| O=C(NO)c1ccc(CNCCCN2c3ccccc3CCc3ccc(Cl)cc32)cc1 | inactive | 2610 nM | 1510 nM | Not Active |  |  |  |  | IC50 (Histone deacetylase 1; sf21): Not Active |
| O=C(NO)c1ccc(C(=O)NCCCN2c3ccccc3CCc3ccc(Cl)cc32)cc1 |  | 448 nM | 1780 nM |  | 8620 nM | 7280 nM | 30.74% |  |  |
| O=C(CCCCCCC(=O)NCCCN1c2ccccc2CCc2ccc(Cl)cc21)NO |  | 658 nM | 2330 nM | Not Active |  |  | 97.21% | 74.3% | Activity (SH-SY5Y [12]): 43.16%; IC50 (Histone deacetylase 1; sf21): Not Active |
| O=C(/C=C/c1ccc(S(=O)(=O)NCCCN2c3ccccc3CCc3ccc(Cl)cc32)cc1)NO |  | 762 nM | 874 nM | Not Active |  | > 10000 nM |  |  |  |
| O=C(CCCCCCCC(=O)NCCCN1c2ccccc2CCc2ccc(Cl)cc21)NO |  | 144 nM | 1070 nM |  | 2740 nM | 3400 nM | 76.55% | 100.96% |  |
| O=C(/C=C/c1cccc(S(=O)(=O)NCCCN2c3ccccc3CCc3ccc(Cl)cc32)c1)NO |  | 821 nM | 2160 nM |  | 8480 nM | 6050 nM |  |  |  |
